Ends that are not written are not given here.
Tests used:
[1] = Phase I safety and tolerability (NCI CTCAE v4.0, DLT) in patients with advanced solid tumors; format: in vivo, human
Description: Dose-escalation was carried out according to a standard 3 + 3 design. At each dose level, cohorts of 3 to 6 patients were scheduled to receive two 21-day cycles of SOR-C13 treatment. SOR-C13 was administered on days 1–3 and 8–10 of the 21-day cycle was administered by IV infusion. The study drug (500 mg/vial) was dissolved in water for injection (2 mL) and diluted in saline prior to infusion to provide a 250 mL (total) infusion volume. Infusion time was increased after the first five patients from the initial 20 min to 90 min with the aim of increasing the safety and tolerability of the drug. In the event of clinically meaningful response (tumor response or stable disease), additional SOR-C13 cycles were offered to study patients. Post-treatment follow-up was completed one and two months after completion of SOR-C13 treatment.
A Safety Monitoring Committee (SMC) oversaw the safety aspects of the study. Safety endpoints included: incidence of adverse events (AEs) and serious AEs (SAEs), withdrawals due to AEs, Dose Limiting Toxicities (DLTs), infusion reactions, deaths on study, vital signs, electrocardiogram (ECGs), clinical laboratory parameters and changes to the treatment regimen (dose delay, dose decrease) due to AEs. The National Cancer Institute (NCI) Common Terminology Criteria for Adverse Events (CTCAE) Version 4.0 was used to grade the severity of AEs.
Based on the safety data from the first two cohorts, the regulatory authorities approved a revision of the definition to “one occurrence of ≥Grade 3 toxicity or one occurrence of Grade 2 hypocalcemia, over the first 21-day cycle”. The latter definition was used for the subsequent four cohorts in the study.

[2] = half-life in the blood compartment, mice; format: in vivo
[3] = Cohort 1 5.5 mg/kg N = 3, 20-min infusions
[4] = Cohort 1, 5.50 mg/kg, C1 D2, Dose# 2
[5] = Cohort 1, 5.50 mg/kg, C1 D8, Dose# 4
[6] = Cohort 2 2.75 mg/kg N = 2, 20-min infusions
[7] = Cohort 2, 2.75 mg/kg, C1 D2, Dose# 2
[8] = Cohort 3 1.375 mg/kg N = 3, 90-min infusions
[9] = Cohort 4 2.75 mg/kg N = 6, 90-min infusions
[10] = Cohort 4, 2.75 mg/kg, C1 D3, Dose# 3
[11] = Cohort 5 4.13 mg/kg N = 3, 90-min infusions
[12] = Cohort 6 6.20 mg/kg N = 6, 90-min infusions
[13] = Cohort 6, 6.20 mg/kg, C1 D8, Post 3
[14] = Cohort 6, 6.20 mg/kg, C1 D18, Post 6

KEFLHPSKVDLPR [SOR-C13]
Any TEAEs, Event ([1]; All Patients N = 23): 185 | TEAEs Definitely related, Event ([1]; All Patients N = 23): 5 | TEAEs Possibly related, Event ([1]; All Patients N = 23): 29 | TEAEs Probably related, Event ([1]; All Patients N = 23): 7 | TEAEs Remotely/Unlikely related, Event ([1]; All Patients N = 23): 10 | TEAEs Remotely/Unlikely related, Patient ([1]; All Patients N = 23): 4 (17) | TEAEs Unrelated, Event ([1]; All Patients N = 23): 134 | TEAEs Unrelated, Patient ([1]; All Patients N = 23): 21 (91) | Any TEAEs, Event [1, 3]: 49 | Any TEAEs, Patient [1, 3]: 3 (100) | TEAEs Definitely related, Event [1, 3]: 5 | TEAEs Definitely related, Patient [1, 3]: 2 (67) | TEAEs Possibly related, Event [1, 3]: 3 | TEAEs Possibly related, Patient [1, 3]: 2 (67) | TEAEs Probably related, Event [1, 3]: 3 | TEAEs Probably related, Patient [1, 3]: 2 (67) | TEAEs Remotely/Unlikely related, Event [1, 3]: 4 | TEAEs Remotely/Unlikely related, Patient [1, 3]: 1 (33) | TEAEs Unrelated, Event [1, 3]: 34 | TEAEs Unrelated, Patient [1, 3]: 3 (100) | DLT Blood calcium decreased, Relationship [1, 4]: Probably related | DLT Blood calcium decreased, Severity [1, 4]: Grade 2 | DLT Blood calcium decreased, Relationship [1, 5]: Definitely related | DLT Blood calcium decreased, Severity [1, 5]: Grade 2 | Any TEAEs, Event [1, 6]: 11 | Any TEAEs, Patient [1, 6]: 2 (100) | TEAEs Definitely related, Event [1, 6]: 0 | TEAEs Definitely related, Patient [1, 6]: 0 (0) | TEAEs Possibly related, Event [1, 6]: 0 | TEAEs Possibly related, Patient [1, 6]: 0 (0) | TEAEs Probably related, Event [1, 6]: 1 | TEAEs Probably related, Patient [1, 6]: 1 (50) | TEAEs Remotely/Unlikely related, Event [1, 6]: 0 | TEAEs Remotely/Unlikely related, Patient [1, 6]: 0 (0) | TEAEs Unrelated, Event [1, 6]: 10 | TEAEs Unrelated, Patient [1, 6]: 2 (100) | DLT Blood calcium decreased, Relationship [1, 7]: Probably related | DLT Blood calcium decreased, Severity [1, 7]: Grade 2 | Any TEAEs, Event [1, 8]: 25 | Any TEAEs, Patient [1, 8]: 3 (100) | TEAEs Definitely related, Event [1, 8]: 0 | TEAEs Definitely related, Patient [1, 8]: 0 (0) | TEAEs Possibly related, Event [1, 8]: 0 | TEAEs Possibly related, Patient [1, 8]: 0 (0) | TEAEs Probably related, Event [1, 8]: 0 | TEAEs Probably related, Patient [1, 8]: 0 (0) | TEAEs Remotely/Unlikely related, Event [1, 8]: 2 | TEAEs Remotely/Unlikely related, Patient [1, 8]: 1 (33) | TEAEs Unrelated, Event [1, 8]: 23 | TEAEs Unrelated, Patient [1, 8]: 3 (100) | frequency of drug-related TEAEs ([1]; Cohort 3 (1.375 mg/kg), 90-min infusions): 0% | Any TEAEs, Event [1, 9]: 52 | Any TEAEs, Patient [1, 9]: 6 (100) | TEAEs Definitely related, Event [1, 9]: 0 | TEAEs Definitely related, Patient [1, 9]: 0 (0) | TEAEs Possibly related, Event [1, 9]: 11 | TEAEs Possibly related, Patient [1, 9]: 4 (67) | TEAEs Probably related, Event [1, 9]: 0 | TEAEs Probably related, Patient [1, 9]: 0 (0) | TEAEs Remotely/Unlikely related, Event [1, 9]: 4 | TEAEs Remotely/Unlikely related, Patient [1, 9]: 2 (33) | TEAEs Unrelated, Event [1, 9]: 37 | TEAEs Unrelated, Patient [1, 9]: 6 (100) | frequency of drug-related TEAEs ([1]; Cohort 4 (2.75 mg/kg), 90-min infusions): 67% | DLT Ionized calcium decreased, Relationship [1, 10]: Possibly related | DLT Ionized calcium decreased, Severity [1, 10]: Grade 2 | Any TEAEs, Event [1, 11]: 14 | Any TEAEs, Patient [1, 11]: 3 (100) | TEAEs Definitely related, Event [1, 11]: 0 | TEAEs Definitely related, Patient [1, 11]: 0 (0) | TEAEs Possibly related, Event [1, 11]: 5 | TEAEs Possibly related, Patient [1, 11]: 3 (100) | TEAEs Probably related, Event [1, 11]: 3 | TEAEs Probably related, Patient [1, 11]: 1 (33) | TEAEs Remotely/Unlikely related, Event [1, 11]: 0 | TEAEs Remotely/Unlikely related, Patient [1, 11]: 0 (0) | TEAEs Unrelated, Event [1, 11]: 6 | TEAEs Unrelated, Patient [1, 11]: 2 (67) | frequency of drug-related TEAEs ([1]; Cohort 5 (4.13 mg/kg), 90-min infusions): 100% | Any TEAEs, Event [1, 12]: 34 | Any TEAEs, Patient [1, 12]: 6 (100) | TEAEs Definitely related, Event [1, 12]: 0 | TEAEs Definitely related, Patient [1, 12]: 0 (0) | TEAEs Possibly related, Event [1, 12]: 10 | TEAEs Possibly related, Patient [1, 12]: 6 (100) | TEAEs Probably related, Event [1, 12]: 0 | TEAEs Probably related, Patient [1, 12]: 0 (0) | TEAEs Remotely/Unlikely related, Event [1, 12]: 0 | TEAEs Remotely/Unlikely related, Patient [1, 12]: 0 (0) | TEAEs Unrelated, Event [1, 12]: 24 | TEAEs Unrelated, Patient [1, 12]: 5 (83) | frequency of drug-related TEAEs ([1]; Cohort 6 (6.20 mg/kg), 90-min infusions): 100% | DLT Atrial fibrillation, Relationship [1, 13]: Unrelated | DLT Atrial fibrillation, Severity [1, 13]: Grade 3 | DLT Anaemia, Relationship [1, 14]: Unrelated | DLT Anaemia, Severity [1, 14]: Grade 3 | Grade 4 TEAEs ([1]; N = 23): No Grade 4 TEAE occurred | TEAEs by MedDRA SOC: Gastrointestinal disorders, patients ([1]; N = 23): 48% | TEAEs by MedDRA SOC: General disorders and administration site conditions, patients ([1]; N = 23): 44% | TEAEs by MedDRA SOC: Infections and infestations, patients ([1]; N = 23): 48% | TEAEs by MedDRA SOC: Investigations, patients ([1]; N = 23): 44% | TEAEs by MedDRA SOC: Metabolism and nutrition disorders, patients ([1]; N = 23): 65% | drug-related Serious Adverse Events (SAEs) ([1]; N = 23): No drug-related Serious Adverse Events (SAEs) occurred | TEAE Anaemia, percentage of patients ([1]; N = 23, MedDRA preferred term): 30% | TEAE Aspartate amino transferase increased, percentage of patients ([1]; N = 23, MedDRA preferred term): 17% | TEAE Blood Calcium Decreased, percentage of patients ([1]; N = 23, MedDRA preferred term): 22% | TEAE Blood alkaline phosphatase increased, percentage of patients ([1]; N = 23, MedDRA preferred term): 13% | TEAE Constipation, percentage of patients ([1]; N = 23, MedDRA preferred term): 17% | TEAE Cough, percentage of patients ([1]; N = 23, MedDRA preferred term): 17% | TEAE Decreased Appetite, percentage of patients ([1]; N = 23, MedDRA preferred term): 22% | TEAE Diarrhoea, percentage of patients ([1]; N = 23, MedDRA preferred term): 13% | TEAE Fatigue, percentage of patients ([1]; N = 23, MedDRA preferred term): 30% | TEAE Hypercalcaemia, percentage of patients ([1]; N = 23, MedDRA preferred term): 13% | TEAE Hyperkalaemia, percentage of patients ([1]; N = 23, MedDRA preferred term): 13% | TEAE Hypoalbuminaemia, percentage of patients ([1]; N = 23, MedDRA preferred term): 30% | TEAE Hypocalcaemia, percentage of patients ([1]; N = 23, MedDRA preferred term): 13% | TEAE Nausea, percentage of patients ([1]; N = 23, MedDRA preferred term): 22% | TEAE Urinary Tract Infection, percentage of patients ([1]; N = 23, MedDRA preferred term): 30% | total number of Grade 3 TEAEs ([1]; N = 23, in thirteen patients): 18 | patients with DLTs ([1]; all cohorts, N = 23, first 21-day cycle): 26.1% | drug-related blood calcium decrease, patients ([1]; all patients N = 23): 13% | drug-related decreased appetite, patients ([1]; all patients N = 23): 9% | drug-related hypoalbuminemia, patients ([1]; all patients N = 23): 30% | drug-related hypocalcemia, patients ([1]; all patients N = 23): 13% | drug-related increased aspartate aminotransferase (AST), patients ([1]; all patients N = 23): 9% | Maximal Tolerated Dose (MTD) ([1]; doses up to 6.2 mg/kg): not established | drug-related hypocalcemia, patients ([1]; patients receiving 90-min infusions (n = 18)): 13% | patients with TEAEs related to the study drug ([1]; possibly, probably or definitely related, total population N = 23): 70% | Grade 3 TEAEs assessed as related to the study drug ([1]; urticaria, ALT increased, AST increased, headache, hypokalaemia): Five of the 18 | deaths during treatment or post-treatment follow-up ([1]; within two months after the last study drug administration): No deaths occurred | half-life in the blood compartment [2]: < 5 min

Reference: publication PMC5418314, “First-in-human phase I study of SOR-C13, a TRPV6 calcium channel inhibitor, in patients with advanced solid tumors” (Investigational New Drugs, 2017)
